No end group written: not given here.
Legend:
Test in all cases: biochemical
Type in all cases: binding
HLA-DR DRB1*0401 (DR4) = HLA-DR DRB1*0401 (DR4) (Homo sapiens, UniProt P01903+P01911, A100K/A169T/F76Y/I96L/K127E/L162R/M171V/N62H/P40V/Q125Y/R42H/S133A/S149N/S66Y/V115G/V209L/W38E); details: DRB1 *0401
HLA-DR DRB3*0101 (DR52) = HLA-DR DRB3*0101 (DR52) (Homo sapiens, UniProt P01903+P79483)
HLA-DR DRB1*1101 (DR11) = HLA-DR DRB1*1101 (DR11) (Homo sapiens, UniProt P01903+P01911, A100R/A169T/A87E/I96F/K41T/L162R/M171V/P40S/Q125H/Q178H/Q39Y/Q99D/R42S/S66Y/T262R/V115G/W38E); details: DRB1 *1101
HLA-DR DRB1*0701 (DR7) = HLA-DR DRB1*0701 (DR7) (Homo sapiens, UniProt P01903+P01911, A100R/A102G/A103Q/D57E/D86V/E43K/F76Y/K127E/L162R/M171V/P40G/Q125H/Q99D/R33Q/R42Y/R54Q/S133A/S66F/T210M/V115G/Y107V/Y59L/Y89S); details: DRB1 *0701
HLA-DR DRB5*0101 (DR51) = HLA-DR DRB5*0101 (DR51) (Homo sapiens, UniProt P01903+Q30154); details: DRB5 *0101
HLA-DR DRB1*1302 (DR13) = HLA-DR DRB1*1302 (DR13) (Homo sapiens, UniProt P01903+P01911, A100E/A169T/K41T/L162R/M171V/P40S/Q125H/Q178H/Q39Y/Q99D/R42S/S66N/T262R/V115G/W38E/Y61H); details: DRBI *1302
HLA-DR DRB4*0101 (DR53) = HLA-DR DRB4*0101 (DR53) (Homo sapiens, UniProt P01903+P13762, G164S); details: DRB4 *0101
HLA-DR DRB1*1501 (DR15) = HLA-DR DRB1*1501 (DR15) (Homo sapiens, UniProt P01903+P01911); details: DRBI *1501
HLA-DR DRB1*0101 (DR1) = HLA-DR DRB1*0101 (DR1) (Homo sapiens, UniProt P01903+P01911, A100R/D57E/F55L/F60I/F76Y/I96L/L162R/M171V/P40L/Q125E/R42F/V115G/Y59C); details: DRB1 *0101
HLA-DR DRB1*0301 (DR3) = HLA-DR DRB1*0301 (DR3) (Homo sapiens, UniProt P01903+P01911, A100K/A102G/A103R/A169T/F55Y/I96L/K41T/L162R/M171V/P40S/Q125H/Q178H/Q39Y/R42S/S66N/T106N/T262R/W38E/Y61H)
HLA-DR DRB1*0901 (DR9) = HLA-DR DRB1*0901 (DR9) (Homo sapiens, UniProt P01903+P01911, A100R/A103E/D57H/D86V/F55Y/F60I/F76Y/I96F/K127E/L162R/M171V/P40D/Q125H/Q99R/R33Q/R42F/S133A/S66N/T210M/V115G/W38K/Y107V/Y59G/Y89S); details: DRB1 *0901
HLA-DR DRB1*0802 (DR8) = HLA-DR DRB1*0802 (DR8) (Homo sapiens, UniProt P01903+P01911, A100R/A103L/A169T/F76Y/H45Y/I96F/K41T/L162R/M171V/P40S/Q125H/Q178H/Q39Y/Q99D/R218S/R42G/S66Y/V115G/W38E)

Sequence of HLA-DR DRB1*0301 (DR3) (P01903 26-254 limits assumed, other chains not shown): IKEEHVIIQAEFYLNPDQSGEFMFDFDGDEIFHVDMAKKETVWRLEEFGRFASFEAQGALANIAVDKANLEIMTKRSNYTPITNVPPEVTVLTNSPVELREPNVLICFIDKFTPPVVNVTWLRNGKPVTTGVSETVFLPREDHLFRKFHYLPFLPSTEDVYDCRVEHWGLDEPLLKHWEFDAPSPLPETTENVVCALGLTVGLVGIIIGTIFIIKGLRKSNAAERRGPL
Sequence of HLA-DR DRB1*1302 (DR13) (P01903 26-254 limits assumed, other chains not shown): as above
Sequence of HLA-DR DRB1*1101 (DR11) (P01903 26-254 limits assumed, other chains not shown): as above

Compound	IC50 (HLA-DR DRB1*0401 (DR4))	IC50 (HLA-DR DRB3*0101 (DR52))	IC50 (HLA-DR DRB1*1101 (DR11))	IC50 (HLA-DR DRB1*0701 (DR7))	IC50 (HLA-DR DRB5*0101 (DR51))	IC50 (HLA-DR DRB1*1302 (DR13))	IC50 (HLA-DR DRB4*0101 (DR53))	IC50 (HLA-DR DRB1*1501 (DR15))	IC50 (HLA-DR DRB1*0101 (DR1))	IC50 (HLA-DR DRB1*0301 (DR3))	IC50 (HLA-DR DRB1*0901 (DR9))	IC50 (HLA-DR DRB1*0802 (DR8))
CC[C@H](C)[C@H](N)C(=O)N[C@@H](CC(C)C)C(=O)N[C@@H](CC(C)C)C(=O)N[C@@H](Cc1c[nH]c2ccccc12)C(=O)N[C@@H](CCC(N)=O)C(=O)N1CCC[C@H]1C(=O)N[C@H](C(=O)N1CCC[C@H]1C(=O)N[C@H](C(=O)N[C@@H](Cc1c[nH]cn1)C(=O)N[C@H](C(=O)N[C@H](C(=O)N1CCC[C@H]1C(=O)N[C@@H](CC(C)C)C(=O)N[C@@H](CO)C(=O)O)C(C)C)[C@@H](C)O)C(C)C)[C@@H](C)CC	170 nM	> 8830 nM	2340 nM	19 nM	28800 nM	1110 nM	712 nM	65 nM	45 nM	> 81800 nM	131 nM	
CC[C@H](C)[C@H](N)C(=O)N[C@@H](Cc1ccc(O)cc1)C(=O)N[C@@H](CO)C(=O)N[C@H](C(=O)N[C@@H](CO)C(=O)N[C@@H](CCSC)C(=O)N[C@@H](CCCCN)C(=O)N[C@@H](Cc1c[nH]cn1)C(=O)N1CCC[C@H]1C(=O)N[C@@H](CCC(N)=O)C(=O)N[C@@H](CCC(=O)O)C(=O)N[C@@H](CCSC)C(=O)N[C@@H](CCCCN)C(=O)N[C@H](C(=O)N[C@@H](Cc1ccc(O)cc1)C(=O)O)[C@@H](C)O)[C@@H](C)CC	16000 nM	> 21900 nM	213 nM		2590 nM	> 35000 nM	5360 nM		8450 nM			1360 nM
CC[C@H](C)[C@H](NC(=O)[C@H](CC(N)=O)NC(=O)[C@H](CCC(=O)O)NC(=O)[C@H](C)NC(=O)[C@H](CCCCN)NC(=O)[C@H](CC(C)C)NC(=O)[C@H](CCC(=O)O)NC(=O)[C@H](CC(=O)O)NC(=O)[C@@H](N)CC(C)C)C(=O)N[C@@H](CCCCN)C(=O)N[C@@H](CCCCN)C(=O)N[C@@H](Cc1ccccc1)C(=O)N[C@@H](CC(C)C)C(=O)N[C@@H](Cc1ccc(O)cc1)C(=O)N[C@@H](CC(N)=O)C(=O)O	4840 nM	548 nM	324 nM	7470 nM	150 nM		788 nM		1140 nM		12800 nM	
CC(C)C[C@H](NC(=O)CNC(=O)[C@H](CC(N)=O)NC(=O)[C@H](Cc1ccc(O)cc1)NC(=O)[C@@H](NC(=O)[C@H](CC(=O)O)NC(=O)[C@@H](N)CC(C)C)C(C)C)C(=O)N[C@@H](CC(C)C)C(=O)N1CCC[C@H]1C(=O)N1CCC[C@H]1C(=O)N[C@@H](Cc1ccc(O)cc1)C(=O)N[C@@H](C)C(=O)N[C@@H](CO)C(=O)N[C@@H](CS)C(=O)N[C@@H](Cc1c[nH]cn1)C(=O)O	348 nM	> 15000 nM		> 83300 nM	25800 nM	> 35000 nM	> 10900 nM	3030 nM	15 nM		31300 nM	
CC[C@H](C)[C@H](NC(=O)CNC(=O)[C@H](Cc1ccc(O)cc1)NC(=O)[C@H](CC(C)C)NC(=O)[C@H](CO)NC(=O)[C@H](CC(C)C)NC(=O)[C@H](CC(C)C)NC(=O)[C@H](CO)NC(=O)[C@H](CC(C)C)NC(=O)[C@H](CCC(=O)O)NC(=O)[C@H](CO)NC(=O)[C@H](CC(C)C)NC(=O)[C@H](CCC(=O)O)NC(=O)[C@H](CCCNC(=N)N)NC(=O)[C@@H](N)CC(C)C)C(=O)O	371 nM	> 15000 nM	6960 nM	4010 nM	5180 nM	3220 nM	544 nM	235 nM	655 nM			9370 nM
CC[C@H](C)[C@H](NC(=O)CNC(=O)[C@H](Cc1ccc(O)cc1)NC(=O)[C@H](CC(C)C)NC(=O)[C@H](CO)NC(=O)[C@H](CC(C)C)NC(=O)[C@H](CC(C)C)NC(=O)[C@H](CO)NC(=O)[C@H](CC(C)C)NC(=O)[C@H](CCC(=O)O)NC(=O)[C@H](CO)NC(=O)[C@@H](N)CC(C)C)C(=O)N[C@@H](Cc1c[nH]cn1)C(=O)N[C@@H](CCCCN)C(=O)N[C@@H](CCC(N)=O)C(=O)O	1550 nM	> 13000 nM	1660 nM	20900 nM	7.3 nM		79 nM	45 nM	482 nM	> 81800 nM	1450 nM	
CC[C@H](C)[C@H](NC(=O)[C@H](Cc1c[nH]cn1)NC(=O)[C@H](CCSC)NC(=O)[C@H](CCCCN)NC(=O)[C@@H](NC(=O)[C@H](CCCCN)NC(=O)[C@H](CCC(N)=O)NC(=O)[C@@H](NC(=O)[C@H](CO)NC(=O)[C@H](Cc1ccccc1)NC(=O)[C@H](CC(N)=O)NC(=O)CNC(=O)[C@@H](N)[C@@H](C)O)[C@@H](C)O)C(C)C)C(=O)N[C@@H](Cc1c[nH]cn1)C(=O)N[C@@H](CO)C(=O)O		> 11800 nM	11900 nM	9410 nM	1930 nM	6190 nM	508 nM		11200 nM		1450 nM	
CSCC[C@H](NC(=O)[C@H](CC(=O)O)NC(=O)[C@H](Cc1ccc(O)cc1)NC(=O)[C@H](CC(C)C)NC(=O)[C@@H]1CCCN1C(=O)[C@H](Cc1c[nH]cn1)NC(=O)[C@@H]1CCCN1C(=O)[C@H](Cc1ccccc1)NC(=O)[C@H](CO)NC(=O)[C@H](Cc1c[nH]cn1)NC(=O)[C@H](CO)NC(=O)[C@@H](NC(=O)[C@H](CCC(N)=O)NC(=O)[C@H](Cc1ccccc1)NC(=O)[C@@H](N)C(C)C)C(C)C)C(=O)O	25 nM	23400 nM		51 nM		83 nM	> 12500 nM	2400 nM	16 nM	> 75000 nM	17 nM	
CC[C@H](C)[C@H](NC(=O)[C@H](Cc1c[nH]c2ccccc12)NC(=O)[C@@H](NC(=O)[C@@H](N)C(C)C)[C@@H](C)O)C(=O)NCC(=O)N[C@@H](C)C(=O)N[C@@H](C)C(=O)N1CCC[C@H]1C(=O)N[C@@H](CC(C)C)C(=O)N[C@H](C(=O)N[C@@H](CC(C)C)C(=O)N[C@@H](CO)C(=O)N[C@@H](CCCNC(=N)N)C(=O)N[C@H](C(=O)N[C@H](C(=O)O)C(C)C)[C@@H](C)CC)[C@@H](C)CC	8000 nM	> 10700 nM	1780 nM	195 nM		2340 nM	88 nM		8.1 nM	> 81800 nM	82 nM	
ADKIYSISMKHPQEM	5310 nM	> 21900 nM		4100 nM		4960 nM	3550 nM	8270 nM				1140 nM
GNEIFNTSLFEPPPP	> 20000 nM	> 13200 nM	> 40000 nM	> 35700 nM	> 200000 nM	2800 nM	835 nM	> 91000 nM	20400 nM			> 163000 nM
LLYTFRKDMDKVETF	10600 nM	941 nM	7900 nM	53400 nM		> 14500 nM		886 nM	> 18000 nM	23900 nM	> 59500 nM	
RNFYVINRLTGYLRN	219 nM	689 nM	55 nM	527 nM	5.6 nM	9.4 nM		18 nM	1.7 nM	2200 nM	7600 nM	

Reference: patent US20060079453A1, “Hla binding peptides and their uses” (priority 2002, published 2006)
